Test results reported in patent US10363239B2, “Method for inhibiting growth of cancer cells” (Pain Therapeutics, Inc., priority 2013, dated 2019).

Experiments:
[1] = target: FLNA pentapeptide of SEQ ID NO: 1 (Bn-VAKGL) (Homo sapiens, UniProt P21333); assay: FITC-NLX-based FLNA screening assay (inhibition of FITC-naloxone binding to Bn-VAKGL on streptavidin plates); settings: for Inhibition of 10 nM FITC-conjugated NLX binding to biotinylated FLNA pentapeptide (FIG. 28): 10 μM
[2] = tested on: mu opiate receptor (MOR); assay: MOR agonist activity using [35S]GTPγS binding assay in striatal membranes; type: biochemical; settings: for % DAMGO (0.1 μM) / % DAMGO (1 μM): relative to DAMGO; for % DAMGO + BFNA: 1 μM compound + β-FNA, relative to DAMGO + BFNA
Method: To assess the mu opiate receptor (MOR) agonist activity of positive compounds from the FLNA screening, compounds were tested in a [^35S]GTPγS binding assay using striatal membranes. […] This assay measures a functional consequence of receptor occupancy at one of the earliest receptor-mediated events. The assay permits traditional pharmacological parameters of potency, efficacy and antagonist affinity, with the advantage that agonist measures are not subjected to amplification or other modulation that may occur when analyzing parameters further downstream of the receptor.
Thus, striatal tissue was homogenized in 10 volumes of ice cold 25 mM HEPES buffer, pH 7.4, which contained 1 mM EGTA, 100 mM sucrose, 50 μg/ml leupeptin, 0.04 mM PMSF, 2 μg/ml soybean trypsin inhibitor and 0.2% 2-mercaptoethanol. The homogenates were centrifuged at 800×g for 5 minutes and the supernatants were centrifuged at 49,000×g for 20 minutes. The resulting pellets were suspended in 10 volume of reaction buffer, which contained 25 mM HEPES, pH 7.5, 100 mM NaCl, 50 μg/ml leupeptin, 2 μg/ml soybean trypsin inhibitor, 0.04 mM PMSF and 0.02% […].
The resultant striatal membrane preparation (200 μg) was admixed and maintained (incubated) at 30° C. for 5 minutes in reaction buffer as above that additionally contained 1 mM MgCl2 and 0.5 nM [^35S]GTPγS (0.1 μCi/assay, PerkinElmer Life and Analytical Sciences) in a total volume of 250 μl and continued for 5 minutes in the absence or presence of 0.1-10 μM of an assayed compound of interest. The reaction was terminated by dilution with 750 μl of ice-cold reaction buffer that contained 20 mM MgCl2 and 1 mM EGTA and immediate centrifugation at 16,000×g for 5 minutes.
The resulting pellet was solubilized by sonicating for 10 seconds in 0.5 ml of immunoprecipitation buffer containing 0.5% digitonin, 0.2% sodium cholate and 0.5% NP-40. Normal rabbit serum (1 μl) was added to 1 ml of lysate and incubated at 25° C. for 30 minutes. Nonspecific immune complexes were removed by incubation with 25 μl of protein A/G-conjugated agarose beads at 25° C. for 30 minutes followed by centrifugation at 5,000×g at 4° C. for 5 minutes. The supernatant was divided and separately incubated at 25° C. for 30 minutes with antibodies raised against Gαo proteins (1:1,000 dilutions).
The immunocomplexes so formed were collected by incubation at 25° C. for 30 minutes with 40 μl of agarose-conjugated protein A/G beads and centrifugation at 5,000×g at 4° C. for 5 minutes. The pellet was washed and suspended in buffer containing 50 mM Tris-HCl, pH 8.0, and 1% NP-40. The radioactivity in the suspension was determined by liquid scintillation spectrometry.

[3] = Series C-2, 0.1 μM compound, [35S]GTPγS binding to Gαo, striatal membranes
[4] = Series C-2, 1 μM compound + 1 μM β-FNA
[5] = Series C-2, 1 μM compound, [35S]GTPγS binding to Gαo, striatal membranes
[6] = Series C-1, 0.1 μM compound, [35S]GTPγS binding to Gαo, striatal membranes
[7] = Series C-1, 1 μM compound + 1 μM β-FNA
[8] = Series C-1, 1 μM compound, [35S]GTPγS binding to Gαo, striatal membranes

Structure (SMILES)	% DAMGO (0.1 μM) ([2]; Series C-2, 0.1 μM compound) [%]	MOR agonist activity, percent [35S]GTPγS binding at the stated compound concentration [2, 3] [%]	MOR agonist activity, percent [35S]GTPγS binding at the stated compound concentration [2, 4] [%]	% DAMGO + BFNA ([2]; Series C-2) [%]	% DAMGO (1 μM) ([2]; Series C-2, 1 μM compound) [%]	MOR agonist activity, percent [35S]GTPγS binding at the stated compound concentration [2, 5] [%]	further results
CN1CC[C@]23c4c5ccc(O)c4O[C@H]2[C@@H](O)C=C[C@H]3[C@H]1C5 [morphine, reference compound]							Inhibition of 10 nM FITC-conjugated NLX binding to biotinylated FLNA pentapeptide (FIG. 28) [1]: minimal binding inhibition
NS(=O)(=O)c1ccc(S(=O)(=O)N2CCC3(CC2)NCCO3)cc1 [Compound C0034-3]							inhibition at 0.01 µM ([1]; FLNA-binding compound 0.01 μM, 10 nM FITC-NLX, read-out: Percent Binding Inhibition): 29.6%; inhibition at 0.1 µM ([1]; FLNA-binding compound 0.1 μM, 10 nM FITC-NLX, read-out: Percent Binding Inhibition): 38.3%; inhibition at 1 µM ([1]; FLNA-binding compound 1 μM, 10 nM FITC-NLX, read-out: Percent Binding Inhibition): 44.8%
COc1ccc(S(=O)(=O)N2CCC3(NCCO3)C3CCCCC32)cc1 (centres unmarked) [Compound C0144M-2]	108.3	186.3	125.9	137.9	90.8	295.9	
CC(=O)c1ccc(S(=O)(=O)N2CCC3(CC2)NCC(=O)N3Cc2ccccc2)cc1 [Compound C0082M]							% DAMGO (0.1 μM) ([2]; Series C-1, 0.1 μM compound): 113.7%; Concentration of FLNA-Binding Compound as Agonist 0.1 μM [2, 6]: 228.1%; Concentration of FLNA-Binding Compound as Agonist 1 μM + BFNA [2, 7]: 97.6%; % DAMGO + BFNA ([2]; Series C-1): 181.1%; % DAMGO (1 μM) ([2]; Series C-1, 1 μM compound): 107.8%; Concentration of FLNA-Binding Compound as Agonist 1 μM [2, 8]: 338.4%
COc1ccc2c3c1O[C@H]1C(=O)CC[C@@]4(O)[C@@H](C2)N(C)CC[C@]314 [oxycodone, reference compound]							Inhibition of 10 nM FITC-conjugated NLX binding to biotinylated FLNA pentapeptide (FIG. 28) [1]: minimal binding inhibition
COc1ccc(NC(=O)N2CCC3(CC2)NCCO3)cc1 [Compound C0151M-2]	201.6	346.8	212.8	233.1	122.0	397.6	
COc1ccc(S(=O)(=O)N2CCOC23CCCNC3)cc1 (centres unmarked) [Compound C0145M-3]	112.2	193.0	87.0	95.3	88.7	289.2	
O=C1CN(Cc2ccccc2)C2(CCN(S(=O)(=O)c3cc(Cl)cc(Cl)c3O)CC2)N1 [Compound C0138M]							% DAMGO (0.1 μM) ([2]; Series C-1, 0.1 μM compound): 86.3%; Concentration of FLNA-Binding Compound as Agonist 0.1 μM [2, 6]: 126.9%; Concentration of FLNA-Binding Compound as Agonist 1 μM + BFNA [2, 7]: 51.5%; % DAMGO + BFNA ([2]; Series C-1): 131.0%; % DAMGO (1 μM) ([2]; Series C-1, 1 μM compound): 90.9%; Concentration of FLNA-Binding Compound as Agonist 1 μM [2, 8]: 183.9%
O=C1CN(Cc2ccccc2)C2(CCN(C3CCCCC3)CC2)N1 [C0137M(P7)]	95.6	180.8	55.8	115.1	78.1	193.8	
O=S(=O)(c1ccccc1Oc1ccccc1)N1CCC2(CC1)NCCO2 [Compound C0149M-2]	122.0	209.8	93.4	102.3	124.8	406.7	
